# According to patent publication US10716791B2, “Inhibitors of peptidyl arginine deiminase (PAD) enzymes and uses thereof” (UNIVERSITY HEALTH NETWORK, priority 2015, dated 2020):
# Like-named read-outs stand apart in the source and are kept apart here.
# Tests used:
# animal models of MS = conditions: cited from earlier work
# PAD2 = PAD2 (Mus musculus (Mouse), UniProt Q08642); experiment: Inhibition of PAD activity (Example 53), PAD2; conditions: for remaining activity at 100 µM / remaining activity at 1000 µM: read-out: Remaining activity of PAD2
# Chain of PAD2 (Q08642 whole entry): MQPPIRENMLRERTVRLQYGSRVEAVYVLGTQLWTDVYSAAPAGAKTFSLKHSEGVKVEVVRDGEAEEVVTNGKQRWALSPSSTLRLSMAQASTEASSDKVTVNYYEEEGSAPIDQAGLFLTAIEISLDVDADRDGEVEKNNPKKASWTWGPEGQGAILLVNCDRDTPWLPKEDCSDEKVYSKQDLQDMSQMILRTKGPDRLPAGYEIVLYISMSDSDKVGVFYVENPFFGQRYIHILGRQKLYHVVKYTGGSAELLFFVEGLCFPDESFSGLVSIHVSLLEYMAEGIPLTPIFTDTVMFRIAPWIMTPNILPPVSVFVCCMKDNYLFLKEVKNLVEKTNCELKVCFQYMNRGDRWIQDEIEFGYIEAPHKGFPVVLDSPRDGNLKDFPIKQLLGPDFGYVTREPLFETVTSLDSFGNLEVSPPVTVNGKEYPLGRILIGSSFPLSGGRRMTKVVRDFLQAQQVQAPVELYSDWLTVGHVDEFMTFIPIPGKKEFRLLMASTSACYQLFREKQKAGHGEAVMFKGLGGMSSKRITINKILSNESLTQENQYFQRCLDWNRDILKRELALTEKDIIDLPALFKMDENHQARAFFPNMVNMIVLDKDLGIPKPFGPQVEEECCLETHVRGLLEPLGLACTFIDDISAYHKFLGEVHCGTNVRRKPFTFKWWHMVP
# Description: (§1) Materials: PAD1, PAD2, PAD3 and PAD4 were purchased from commercial sources. Assay buffer: 50 mM Tris pH 7.5, 100 mM NaCl, 10 mM CaCl2, 5 mM DTT.
# (§2) The inhibitor (12.5 μL of stock) was mixed with appropriate amount of substrate (BAEE) stock solution and preincubated at 37° C. for a period in the range of 0-60 min. The reaction was initiated by the addition of the enzyme. The reaction samples were incubated for a period in the range of 0-60 min. […] Samples were cooled on ice, vortexed and centrifuged. 200 μL aliquots were transferred to the 96-well plate and the absorbance was measured at 530 nm and the remaining activity was computed. The remaining activity data were plotted versus inhibitor concentration and fitted to the dose-response equation to calculate IC50.
# PAD4 [1] = molecular target: T1, PAD4 (Homo sapiens (Human), UniProt Q9UM07); experiment: Inhibition of PAD activity (Example 53), PAD4; conditions: for remaining activity at 100 µM / remaining activity at 1000 µM: read-out: Remaining activity of PAD4; for PAD4 Ki ± std error / Ki: Table 5; for Ki: read-out: PAD4 Ki ± std error
# T1 sequence (Q9UM07 whole entry): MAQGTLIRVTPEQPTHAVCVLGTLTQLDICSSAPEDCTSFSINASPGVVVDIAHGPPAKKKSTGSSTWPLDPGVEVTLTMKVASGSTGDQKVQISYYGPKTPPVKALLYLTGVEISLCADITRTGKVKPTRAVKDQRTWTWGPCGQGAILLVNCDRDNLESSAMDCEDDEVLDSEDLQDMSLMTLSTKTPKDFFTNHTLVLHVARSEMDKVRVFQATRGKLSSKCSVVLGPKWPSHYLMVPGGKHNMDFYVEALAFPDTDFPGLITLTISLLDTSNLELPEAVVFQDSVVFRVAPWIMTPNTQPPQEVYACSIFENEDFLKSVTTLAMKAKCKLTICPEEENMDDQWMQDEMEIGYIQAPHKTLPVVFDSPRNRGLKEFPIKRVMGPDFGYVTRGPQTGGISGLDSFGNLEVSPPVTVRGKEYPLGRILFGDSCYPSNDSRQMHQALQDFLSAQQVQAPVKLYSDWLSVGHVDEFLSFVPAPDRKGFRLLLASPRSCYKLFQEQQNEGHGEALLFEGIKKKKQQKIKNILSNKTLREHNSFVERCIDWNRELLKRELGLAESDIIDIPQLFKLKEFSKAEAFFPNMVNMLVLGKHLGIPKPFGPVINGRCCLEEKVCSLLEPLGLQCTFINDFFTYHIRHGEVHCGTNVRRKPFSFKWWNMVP
# Description: as §1, §2
# PAD1 [2] = molecular target: T2, PAD1 (Homo sapiens (Human), UniProt Q9ULC6); experiment: Enzyme inhibition kinetics (Example 54), hPAD1; assay type: biochemical; conditions: for Ki: Table 6
# T2 sequence (Q9ULC6 whole entry): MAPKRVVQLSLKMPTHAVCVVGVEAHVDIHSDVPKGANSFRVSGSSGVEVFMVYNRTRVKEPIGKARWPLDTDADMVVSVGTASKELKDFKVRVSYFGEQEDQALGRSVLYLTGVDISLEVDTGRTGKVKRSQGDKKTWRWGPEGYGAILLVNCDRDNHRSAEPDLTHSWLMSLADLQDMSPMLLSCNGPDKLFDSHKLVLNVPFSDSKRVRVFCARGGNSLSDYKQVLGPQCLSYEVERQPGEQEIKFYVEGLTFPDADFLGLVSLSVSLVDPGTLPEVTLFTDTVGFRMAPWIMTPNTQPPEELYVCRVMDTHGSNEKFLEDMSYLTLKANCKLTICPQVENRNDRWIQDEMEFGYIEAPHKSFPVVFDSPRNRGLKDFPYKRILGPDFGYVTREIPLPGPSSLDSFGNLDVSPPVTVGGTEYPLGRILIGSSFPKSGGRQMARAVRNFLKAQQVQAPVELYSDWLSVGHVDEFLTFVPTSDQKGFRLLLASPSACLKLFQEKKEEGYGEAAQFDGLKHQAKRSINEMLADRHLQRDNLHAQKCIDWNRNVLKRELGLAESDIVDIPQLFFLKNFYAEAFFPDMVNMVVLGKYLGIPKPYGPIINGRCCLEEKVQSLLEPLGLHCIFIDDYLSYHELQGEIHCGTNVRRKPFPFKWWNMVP
# PAD1 [3] = molecular target: T2, PAD1; experiment: Inhibition of PAD activity (Example 53), PAD1; conditions: Table 5; for Ki: read-out: PAD1 Ki ± std error
# Description: as §1, §2
# CHO cells = experiment: CHO cell toxicity assay; assay type: cell-based; conditions: Cricetulus griseus
# mPAD2 = mPAD2 (Mus musculus (Mouse), UniProt Q08642); experiment: Enzyme inhibition kinetics (Example 54), mPAD2; assay type: biochemical; conditions: for Ki: Table 6; for Selectivity ratio of inhibition, mPAD2 (PAD4): mPAD2 versus PAD4
# Chain of mPAD2 (Q08642 whole entry): as the sequence (Q08642 whole entry) above
# PAD4 [4] = molecular target: T1, PAD4; experiment: Enzyme inhibition kinetics (Example 54), hPAD4; assay type: biochemical; conditions: for Ki: Table 6
# PADs = experiment: Enzymatic assays with hPAD1, mPAD2 and hPAD4, stated for PADs overall; assay type: biochemical; conditions: summary of Table 6; read-out: Ki, activity towards PADs
# PAD enzymes = conditions: most potent non-peptidic compounds from the literature; cited from earlier work
# [5] = read-out: PAD2 inhibition constant Ki ± Std Error, Table 1
# [6] = read-out: PAD2 Ki ± std error, Table 5
structure (smiles),measurement,setting,value
"N=C(N)CCl [Compound 2CA, 2-chloroacetamidine]",MS disease,animal models of MS; four animal models of MS,attenuated MS disease
same,PAD activity in the brain,animal models of MS; four animal models of MS,decreased PAD activity in the brain
same,amount of citrullinated protein,animal models of MS; four animal models of MS,decreased the amount of citrullinated protein
same,disease after therapy cessation at 6 months,animal models of MS; one murine model,fully progressive clinical disease re-emerged promptly
same,disease with early and prolonged administration,animal models of MS; one murine model,essentially prevented the disease
COC(=O)[C@H](CN1CCNCC1)NC(=O)C1CCCCC1 [KP-224],Ki,PAD2; [5],21.3 ± 3.4 µM
"COC(=O)[C@H](CN1CCNCC1)NC(=O)c1ccco1 [KP-225, (S)-Methyl 2-(furan-2-carboxamido)-3-(piperazin-1-yl)propanoate]",remaining activity at 100 µM,PAD4 [1],78.7 ± 9.5%
same,remaining activity at 1000 µM,PAD4 [1],62.2 ± 2.7%
same,remaining activity at 100 µM,PAD2,86.6 ± 3%
same,remaining activity at 1000 µM,PAD2,70.8 ± 1.7%
"COC(=O)[C@H](CCN1CCNCC1)NC(=O)c1ccco1 [KP-226, (S)-Methyl 2-(furan-2-carboxamido)-4-(piperazin-1-yl)butanoate]",Ki,PAD2; [6],286 ± 27 µM
same,Ki,PAD2; [5],19.7 ± 2 µM
"O=C(N[C@@H](CN1CCNCC1)C(=O)NCc1ccccc1)c1ccco1 [KP-227, (S)—N-(1-(Benzylamino)-1-oxo-3-(piperazin-1-yl)propan-2-yl)furan-2-carboxamide]",remaining activity at 100 µM,PAD4 [1],100 ± 1.3%
same,remaining activity at 1000 µM,PAD4 [1],82.2 ± 2.4%
same,remaining activity at 100 µM,PAD2,63.7 ± 0.6%
same,remaining activity at 1000 µM,PAD2,68.2 ± 2.3%
"O=C(N[C@@H](CCN1CCNCC1)C(=O)NCc1ccccc1)c1ccco1 [KP-228, (S)—N-(1-(Benzylamino)-1-oxo-4-(piperazin-1-yl)butan-2-yl)furan-2-carboxamide]",remaining activity at 100 µM,PAD4 [1],96.4 ± 10.4%
same,remaining activity at 1000 µM,PAD4 [1],82.1 ± 7.2%
same,remaining activity at 100 µM,PAD2,58.6 ± 3.6%
same,remaining activity at 1000 µM,PAD2,31.8 ± 4.9%
O=C(Nc1ccccc1)[C@H](CC(=O)N1CCNCC1)NC(=O)N1CCOCC1 [KP-229],remaining activity at 100 µM,PAD4 [1],100 ± 5.5%
same,remaining activity at 1000 µM,PAD4 [1],100 ± 2.6%
same,remaining activity at 100 µM,PAD2,54 ± 2.7%
same,remaining activity at 1000 µM,PAD2,63.3 ± 2%
O=C(N[C@@H](CC(=O)N1CCNCC1)C(=O)Nc1ccccc1)c1ccco1 [KP-230],remaining activity at 100 µM,PAD4 [1],96.9 ± 7.6%
same,remaining activity at 1000 µM,PAD4 [1],82.4 ± 1.7%
same,remaining activity at 100 µM,PAD2,55.1 ± 0.5%
same,remaining activity at 1000 µM,PAD2,33.5 ± 0.4%
O=C(N[C@@H](CCO)C(=O)Nc1ccccc1)OCc1ccccc1 [KP-231],remaining activity at 100 µM,PAD4 [1],100 ± 4.6%
same,remaining activity at 1000 µM,PAD4 [1],82.3 ± 3.7%
same,remaining activity at 100 µM,PAD2,44.4 ± 0.5%
same,remaining activity at 1000 µM,PAD2,45.5 ± 1.1%
"CC(C)NC(=O)[C@H](CCn1ccnc1)NC(=O)c1ccco1 [KP-286, (S)—N-(4-(1[H]-imidazol-1-yl)-1-(isopropylamino)-1-oxobutan-2-yl) furan-2-carboxamide]",Ki,PAD1 [2],964 ± 689 µM
same,Ki,PAD1 [3],2500 ± 1780 µM
same,IC50,CHO cells,546 ± 136 µM
same,Ki,PAD2; [6],554 ± 93 µM
same,Ki,mPAD2,554 ± 93 µM
"CC(C)NC(=O)[C@H](CCN1CCN(C)CC1)NC(=O)N1CCOCC1 [KP-287, (S)—N-(1-(Isopropylamino)-4-(4-methylpiperazin-1-yl)-1-oxobutan-2-yl)morpholine-4-carboxamide]",PAD4 Ki ± std error,PAD4 [1],No inhibition up to 10 mM
same,Ki,PAD1 [2],> 10000 µM
same,Ki,PAD4 [4],> 10000 µM
same,Ki,PADs,200 to 500 µM
same,PAD1 Ki ± std error,PAD1 [3],Some inhibition but IC50 not calculated - no Ki
same,IC50,CHO cells,> 2000 µM
same,Ki,PAD2; [6],600 ± 1330 µM
same,Ki,mPAD2,> 10000 µM
"CC(C)NC(=O)[C@H](CCn1cnc(CC#N)c1)NC(=O)c1ccco1 [KP-288, (S)—N-(4-(4-(Cyanomethyl)-1[H]-imidazol-1-yl)-1-(isopropylamino)-1-oxobutan-2-yl)furan-2-carboxamide]",Ki,PAD4 [1],591 ± 77 µM
same,inhibitor efficacy towards hPAD1 in comparison to other isozymes,PAD1 [2],at least 3 fold
same,Ki,PAD1 [2],353 ± 23 µM
same,"Selectivity ratio of inhibition, hPAD1 (PAD2)","PAD1 [2]; hPAD1 versus PAD2, ratios greater than 2-fold suggest selectivity",2.8
same,"Selectivity ratio of inhibition, hPAD1 (PAD4)",PAD1 [2]; hPAD1 versus PAD4,1.6
same,Ki,PAD4 [4],591 ± 77 µM
same,"Selectivity ratio of inhibition, hPAD4 (PAD1)",PAD4 [4]; hPAD4 versus PAD1,0.6
same,Ki,PAD1 [3],914 ± 59 µM
same,IC50,CHO cells,> 2000 µM
same,Ki,PAD2; [6],176 ± 62 µM
same,Ki,mPAD2,1000 ± 876 µM
same,"Selectivity ratio of inhibition, mPAD2 (PAD1)",mPAD2; mPAD2 versus PAD1,0.4
same,"Selectivity ratio of inhibition, mPAD2 (PAD4)",mPAD2,0.6
"CC(C)NC(=O)[C@H](CCN1CCN(C)CC1)NC(=O)c1ccco1 [KP-289, (S)—N-(1-(Isopropylamino)-4-(4-methylpiperazin-1-yl)-1-oxobutan-2-yl)furan-2-carboxamide]",Ki,PAD4 [1],488 ± 47 µM
same,Ki,PAD4 [4],488 ± 47 µM
same,"Selectivity ratio of inhibition, hPAD4 (PAD2)",PAD4 [4]; hPAD4 versus PAD2,3.7 (PAD2)
same,IC50,CHO cells,> 2000 µM
same,Ki,PAD2; [6],1790 ± 2420 µM
same,Ki,mPAD2,1840 ± 2420 µM
same,"Selectivity ratio of inhibition, mPAD2 (PAD4)",mPAD2,0.3 (PAD4)
CC(C)NC(=O)[C@H](CN1CCN(C)CC1)NC(=O)N1CCCCC1 [KP-290],PAD4 Ki ± std error,PAD4 [1],No inhibition up to 10 mM
CC(C)NC(=O)[C@H](CN1CCN(C)CC1)NC(=O)N1CCOCC1 [KP-291],PAD4 Ki ± std error,PAD4 [1],No inhibition up to 10 mM
same,PAD1 Ki ± std error,PAD1 [3],No inhibition up to 10 mM
same,PAD2 Ki ± std error,PAD2; Table 5,No inhibition up to 10 mM
CC(C)NC(=O)[C@H](Cn1ccnc1)NC(=O)N1CCOCC1 [KP-292],Ki,PAD4 [1],~14900 µM
"CC(C)NC(=O)[C@H](CCN1CCN(C)CC1)NC(=O)C1CCCCC1 [KP-295, (S)—N-(1-(Isopropylamino)-4-(4-methylpiperazin-1-yl)-1-oxobutan-2yl) cyclohexanecarboxamide]",PAD4 Ki ± std error,PAD4 [1],No inhibition up to 10 mM
same,Ki,PAD4 [4],> 10000 µM
same,PAD2 Ki ± std error,PAD2; Table 5,No inhibition up to 10 mM
same,Ki,mPAD2,> 10000 µM
COC(=O)[C@H](Cn1ccnc1)NC(=O)c1ccco1 [KP-298],Ki,PAD4 [1],1240 ± 1390 µM
same,Ki,PAD1 [3],785 ± 384 µM
same,Ki,PAD2; [6],662 ± 210 µM
O=C(N[C@@H](Cn1ccnc1)C(=O)OCc1ccccc1)c1ccco1 [KP-300],Ki,PAD4 [1],1070 ± 427 µM
same,PAD1 Ki ± std error,PAD1 [3],No inhibition up to 10 mM
same,Ki,PAD2; [6],739 ± 339 µM
"O=C(N[C@@H](CCn1ccnc1)C(=O)NCc1ccccc1)c1ccco1 [KP-301, (S)—N-(1-(Benzylamino)-4-(1 [H]-imidazol-1-yl)-1-oxobutan-2-yl) furan-2-carboxamide]",PAD4 Ki ± std error,PAD4 [1],No inhibition up to 10 mM
same,Ki,PAD1 [2],> 10000 µM
same,Ki,PAD4 [4],> 10000 µM
same,Ki,PADs,200 to 500 µM
same,PAD1 Ki ± std error,PAD1 [3],No inhibition up to 10 mM
same,PAD2 Ki ± std error,PAD2; Table 5,No inhibition up to 10 mM
same,Ki,mPAD2,> 10000 µM
O=C(NCc1ccccc1)[C@H](Cn1ccnc1)NC(=O)N1CCCCC1 [KP-304],PAD4 Ki ± std error,PAD4 [1],No inhibition up to 10 mM
same,Ki,PAD2; [6],5300 ± 7830 µM
Cn1cccc1C(=O)N[C@@H](Cn1ccnc1)C(=O)NCc1ccccc1 [KP-305],Ki,PAD1 [3],147 ± 52 µM
same,Ki,PAD2; [6],58 ± 5 µM
CC(C)(C)OC(=O)N[C@@H](CN=[N+]=[N-])C(=O)NCc1ccccc1 [KP-306],PAD4 Ki ± std error,PAD4 [1],No inhibition up to 10 mM
same,PAD1 Ki ± std error,PAD1 [3],No inhibition up to 10 mM
same,PAD2 Ki ± std error,PAD2; Table 5,No inhibition up to 10 mM
CC(C)(C)OC(=O)N[C@H](CCN=[N+]=[N-])C(=O)NCc1ccccc1 [KP-310],Ki,PAD4 [1],1450 ± 187 µM
same,Ki,PAD1 [3],3430 ± 1940 µM
same,Ki,PAD2; [6],1430 ± 186 µM
CC(C)(C)OC(=O)N[C@H](CCO)C(=O)NCc1ccccc1 [KP-311],PAD4 Ki ± std error,PAD4 [1],No inhibition up to 10 mM
same,PAD1 Ki ± std error,PAD1 [3],No inhibition up to 10 mM
same,PAD2 Ki ± std error,PAD2; Table 5,No inhibition up to 10 mM
"O=C(N[C@@H](CCn1ccnn1)C(=O)NCc1ccccc1)c1ccc(F)cc1 [KP-316, (S)—N-(1-(Benzylamino)-1-oxo-4-(1[H]-1,2,3-triazol-1-yl)butan-2-yl)-4-fluorobenzamide]",PAD4 Ki ± std error,PAD4 [1],Some inhibition but IC50 can't be calculated - no Ki
same,Ki,PAD1 [2],> 10000 µM
same,Ki,PAD1 [3],77700 ± 91500 µM
same,PAD2 Ki ± std error,PAD2; Table 5,Some inhibition but IC50 can't be calculated - no Ki
CN(C)[C@@H]1C(O)=C(C(N)=O)C(=O)[C@@]2(O)C(O)=C3C(=O)c4c(O)ccc(Cl)c4[C@@](C)(O)[C@H]3C[C@@H]12 [chlortetracycline],IC50,PAD enzymes,100 µM
